Test results: patent US8507554B2 (priority 2006, dated 2013)

Tests used:
P. aeruginosa [1] = test: Inhibiting ability against biofilm formation: count of adhesive P. aeruginosa on specimen surface after 4 hours; format: cell-based, Pseudomonas aeruginosa; conditions: 10 μmol/L, table shows Comparative example 1 (distilled water) = 100
Description: Inhibiting ability against biofilm formation of quorum-sensing antagonist prepared according to exemplary embodiments 1-7 was evaluated.
Specimen was set in nutrient flask containing 10 μmol/L of quorum-sensing antagonist prepared according to exemplary embodiments 1-7 and P. aeruginosa which has strong adhesive character on surface. Numbers of adhesive P. aeruginosa on surface were counted after 4 hours. Distilled water was poured into nutrient flask instead of quorum-sensing antagonist as a comparison example 1. Numbers of adhesive P. aeruginosa on surface were counted after 4 hours. […] Numbers of adhesive P. aeruginosa on surface were counted after 4 hours. […]

P. aeruginosa [2] = test: Microscopy of P. aeruginosa biofilm grown on specimens for 48 hours; format: cell-based, Pseudomonas aeruginosa; conditions: biofilm grown 48 hours
Description: Specimens were set in nutrient flasks containing compounds according to the first exemplary embodiment 1, comparative examples 1 and 2. Biofilm was grown on the specimens for 48 hours. The specimen were examined using microscope. Furthermore, specimens were set in nutrient flasks containing compounds according to exemplary embodiment 6 and comparative example 2. Biofilm on the specimens was grown for 48 hours. The specimens were examined using a microscope.

Vibrio harveyi BB886 = test: Bioluminescence assay of quorum-sensing antagonistic ability with reporter strain Vibrio harveyi BB886; format: cell-based; conditions: 2 hours
Description: Quorum-sensing antagonistic ability of 2-(phenylcarbonothioylthio) acetyl homoserine lactone as described in Formula 8 was evaluated using Vibrio harveyi strain BB886 which responds to the AI-1, i.e., N-(3-hydroxybutanoyl)-1-homoserine lactone (3-OH—C4-HSL) as reporter strain. Vibrio harveyi strain BB886 was grown in LBS medium (10 g/L tryptone, 5 g/L yeast extract, 20 g/L NaCl) at 30° C. For the bioluminescence assay, an overnight culture was diluted 100-fold in a sterile AI bioassay (AB) medium (300 mM NaCl, 50 mM MgSO4, 0.2% (w/v) vitamin-free casamino acid, 10 mM potassium phosphate, 1 mM 1-arginine, 1% glycerol; pH 7.5).
After vaporizing chloroform in 4 test tubes at 30° C. for 2 hours, 4.0 mL of the diluted reporter strain culture was added to No. 1˜No. 4 test tubes and incubated at 30° C. Luminescence measurements were performed after 2 hours of incubation using a luminescence meter (Thermo Electron Co.). Bacterial cell density was measured by optical densities at 600 nm (OD600) using a UV spectrophotometer (HP8452A, H.P.). The antagonist activities of 2-(phenylcarbonothioylthio) acetyl homoserine lactone were expressed as a specific luminescence; relative light units/OD600. […]

[3] = system: Agrobacterium tumefaciens A136(pTiA136, pCF218, pCF372); test: LacZ luminescence assay of quorum-sensing antagonistic ability with reporter strain A. tumefaciens A136; format: cell-based; conditions: 0.5 μM autoinducer 3-oxo-C8-HSL plus 5 μM of compound
Description: A. tumefaciens A136 (pTiA136, pCF218, and pCF372) was cultured in Luria-Bertani (LB) media with 50 μg/mL spectinomycin and 4.5 μg/mL tetracycline at 30° C. For the bioassay of 2-(phenylcarbonothioylthio) acetyl homoserine lactone, an overnight culture was diluted at 1:100 and incubated up to an optical density of 0.3 at 600 nm (OD600) at 30° C.
No. 1 solution contained 0.5 μM of N-3-oxootanoyl homoserine lactone.
After vaporizing chloroform in 2 test tubes at 30° C. for 2 hours, 4.0 mL of the diluted reporter strain culture was added to No. 1 and No. 2 test tubes.
LacZ quantative analysis for test tubes described above was performed using Tropix-plus kit (Applied Biosystems, USA). Luminescence measurements were performed after 2 hours of incubation using a luminescence meter (Thermo Electron Co.). Bacterial cell density was measured by optical densities at 600 nm (OD600) using a UV spectrophotometer (HP8452A, H. P.). The antagonist activities of 2-(phenylcarbonothioylthio) acetyl homoserine lactone were expressed as a specific luminescence; relative light units/OD600.

[4] = system: E. coli DH5α co-transformed by pJN105L (LasR expression plasmid) and pSC11 (lasI::lacZ fusion reporter plasmid); test: LacZ bioassay of quorum-sensing antagonistic ability with co-transformed E. coli DH5α (LasR reporter); format: cell-based; conditions: 1 μM autoinducer 3-oxo-C12-HSL plus 1, 2 or 10 μM of compound
Description: Transformant E. coli was cultured in Luria-Bertani (LB) broth with 10 μg/mL gentamicin and 50 μg/mL ampicillin at 37° C.
For LacZ bioassay of 2-(phenylcarbonothioylthio) acetyl homoserine lactone, an overnight culture was diluted at 1:100 and incubated up to an optical density of 0.3 at 600 nm (OD600) at 30° C. Then, 0.4% arabinose was added.
After vaporizing chloroform in 4 test tubes at 37° C. for 2 hours, 4.0 mL of the diluted reporter strain culture was added to No. 1˜No. 4 test tubes.
LacZ Bioassay for test tubes described above was performed using Tropix-plus kit (Applied Biosystems, USA). Luminescence measurements were performed after 2 hours of incubation using a luminescence meter (Thermo Electron Co.). Bacterial cell density was measured by optical densities at 600 nm (OD600) using a UV spectrophotometer (HP8452A, H.P.).
The antagonist activities of 2-(phenylcarbonothioylthio) acetyl homoserine lactone were expressed as a specific luminescence; relative light units/OD600.

SMILES	% of adhesive P. aeruginosa relative to comparative example (P. aeruginosa [1])	further results
O=C(CSc1ccncc1)NC1CCOC1=O (stereo not shown) [Example 1, N-(2-oxo-tetrahydrofuran-3-yl)-2-(pyridin-4-ylthio)acetamide]	40%	
CCCCCC(=O)CC(=O)N[C@H]1CCOC1=O [Autoinducer]		P. aeruginosa attached on specimen (microscopic image) (P. aeruginosa [2]): plentifully observed
O=C(O)CSCCSCC(=O)NC1CCOC1=O (stereo not shown) [Example 4, 2-(2-(2-oxo-2-(2-oxo-tetrahydrofuran-3-ylamino)ethylthio)ethylthio)acetic acid]	13%	
C[C@@H](O)CC(=O)N[C@H]1CCOC1=O [3-hydroxybutanoylhomoserine lactone, N-(3-hydroxybutanoyl)-1-homoserine lactone, reference compound]		luminescence intensity per V. harveyi (relative light units/OD600) (Vibrio harveyi BB886; sample containing only 1 μM autoinducer): relatively high
O=C(O)CSCC(=O)NC1CCOC1=O (stereo not shown) [Example 3, 2-(2-oxo-2-(2-oxo-tetrahydrofuran-3-ylamino)ethylthio)acetic acid]	33%	
O=C(O)CSC(=S)SCC(=O)NC1CCOC1=O (stereo not shown) [Example 7]	30%	
CCCCCCCCCC(=O)CC(=O)N[C@H]1CCOC1=O [Comparative example 2, N-3-oxododecanoylhomoserinelactone, reference compound]	190%	
O=C(CSc1ncccn1)NC1CCOC1=O (stereo not shown) [Example 2]	51%	
O=C(CSC(=S)c1ccccc1)NC1CCOC1=O (stereo not shown) [Example 6, 2-(phenylcarbonothioylthio)acetyl homoserine lactone]	20%	luminescence intensity per V. harveyi (relative light units/OD600) (Vibrio harveyi BB886; 1 μM autoinducer 3-OH-C4-HSL plus 1, 5 or 10 μM of compound): decreased remarkably; luminescence intensity per A. tumefaciens A136 (relative light units/OD600) [3]: decreased remarkably; luminescence intensity per co-transformed E. coli DH5α (relative light units/OD600) [4]: decreased remarkably
CSCC(=O)NC1CCOC1=O (stereo not shown) [Example 5, 2-(methylthio)-N-(2-oxo-tetrahydrofuran-3-yl)acetamide]	30%	
